# In patent US8362204B2 (priority 2006, dated 2013):
# Where “and” joins values, the source holds several entries; their conditions need not be identical. Identical values can stand only once.
# Target: T1, neuronal-type nicotinic receptors (Bos taurus, UniProt Q07263+Q8SPU6)
# T1 construct: monolayer cultures of bovine adrenal chromaffin cells; endogenous in cells; host or cells: bovine adrenal chromaffin cells (primary monolayer cultures)
# Type: cell-based, Bovine
# T1 sequence (Q07263 22-495): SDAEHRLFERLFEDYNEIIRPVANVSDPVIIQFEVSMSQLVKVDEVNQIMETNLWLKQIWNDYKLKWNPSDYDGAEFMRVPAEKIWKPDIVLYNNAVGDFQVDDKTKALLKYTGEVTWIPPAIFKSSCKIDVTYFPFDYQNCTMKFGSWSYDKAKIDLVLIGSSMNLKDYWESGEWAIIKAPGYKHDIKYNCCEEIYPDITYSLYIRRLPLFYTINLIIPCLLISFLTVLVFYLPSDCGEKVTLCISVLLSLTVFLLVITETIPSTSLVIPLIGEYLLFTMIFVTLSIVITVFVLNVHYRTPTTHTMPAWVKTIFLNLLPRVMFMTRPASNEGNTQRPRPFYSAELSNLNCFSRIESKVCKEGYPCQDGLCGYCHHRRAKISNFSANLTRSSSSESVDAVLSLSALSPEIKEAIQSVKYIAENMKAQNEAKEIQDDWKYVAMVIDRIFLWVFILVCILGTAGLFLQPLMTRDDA
# T1 sequence (Q8SPU6 20-496): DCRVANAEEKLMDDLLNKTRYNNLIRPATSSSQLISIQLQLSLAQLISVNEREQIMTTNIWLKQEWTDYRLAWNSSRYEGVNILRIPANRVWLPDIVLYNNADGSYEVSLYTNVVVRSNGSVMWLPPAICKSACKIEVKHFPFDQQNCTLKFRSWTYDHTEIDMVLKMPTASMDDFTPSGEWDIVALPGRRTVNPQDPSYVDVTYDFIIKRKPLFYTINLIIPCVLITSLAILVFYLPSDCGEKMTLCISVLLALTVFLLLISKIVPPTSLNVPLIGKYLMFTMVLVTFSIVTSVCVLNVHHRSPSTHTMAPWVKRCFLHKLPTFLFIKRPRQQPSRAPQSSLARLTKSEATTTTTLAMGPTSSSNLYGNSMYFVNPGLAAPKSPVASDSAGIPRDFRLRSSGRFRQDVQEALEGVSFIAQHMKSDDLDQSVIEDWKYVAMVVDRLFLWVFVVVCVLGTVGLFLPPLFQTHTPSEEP
compound,measurement,value
"CN1CCCC1c1cccnc1 (centres unmarked) [NICOTINE, nicotine, reference compound]","Adrenaline Release, 1st-4th (individual wells)",4.31% and 4.52% (2×) and 4.48%
same,"Adrenaline Release, mean",4.46%
same,"Noradrenaline Release, 1st-4th (individual wells)",6.62% and 6.89% (2×) and 6.99%
same,"Noradrenaline Release, mean",6.85%
same,"noradrenaline released, basal release (0.72%) subtracted",6.13%
